In the NIST ThermoML archive (doi:10.1016/j.jct.2005.12.003):
± gives the expanded uncertainty stated by the source.

Experiments:
[1] = Liquid; for mass density: 298.15 K, 101.33 kPa; for vapor or sublimation pressure: refractive and density measurements
[2] = refractive index (Na D-line) (dimensionless); conditions: 298.15 K; 101.33 kPa; Liquid; Standard Abbe refractometry

Row | Structure (SMILES) | mass density [1] | vapor or sublimation pressure ([1]; 353.25 K) | refractive index [2] | vapor or sublimation pressure ([1]; 404.82 K) | vapor or sublimation pressure ([1]; 353.89 K)
1 | c1ccccc1 [benzene] | 873.6 ± 0.2 kg/m3 | 101.3 kPa | 1.49692 ± 0.00072 | – | –
2 | Clc1ccccc1 [chlorobenzene] | 1100.8 ± 0.5 kg/m3 | – | 1.52176 ± 0.00075 | 101.3 kPa | –
3 | C1CCCCC1 [cyclohexane] | 773.7 ± 0.3 kg/m3 | – | 1.4232 ± 0.00072 | – | 101.3 kPa
